Here are results for 6 compounds from patent US9012223B2, “Methods for enhancing genome stability and telomere elongation in embryonic stem cells” (The United States of America, as represented by the …, priority 2009, dated 2015).

The test system of test [1] is MC1-ZE7 cells. Description: Effect of retinoids on ES cell proliferation. Type of test: cell-based, mouse. The settings on record: atRA, 9-cis RA, 13-cis RA 50 nM, vitamin A 5 μM; up to 7 days. The text has this:
(§1) FIG. 10A is a line graph showing the effect of different retinoids (atRA, 9-cis RA, 13-cis RA or vitamin A) on the percentage of Zscan4^+ cells in culture. Shown is the percentage of Emerald^+ MC1-ZE-7 cells up to seven days following exposure to the retinoid. FIG. 10B is a line graph showing the effect of the different reintoids on ES cell proliferation.
(§2) Although atRA is most commonly used for mammalian cell culture systems, there are other retinoids that sometimes have similar activities on the cells. To test other retinoids for Zscan4-inducibility, similar time-course kinetic assays were carried out using atRA (50 nM final concentration), 9-cis RA (50 nM final concentration), 13-cis RA (50 nM final concentration), or vitamin A (5 μM final concentration). […] Zscan4^+ cells may have growth advantages over Zscan4^− cells in the presence of vitamin A and 13-cis RA.

The subject of test [2] is Zscan4. Description: Time-course of Emerald GFP+ (Zscan4+) cells by flow cytometry after retinoid treatment. The settings on record: for day of peak of fraction of Zscan4+ cells / fraction of Zscan4+ cells / secondary increase of Zscan4+ cells: atRA, 9-cis RA, 13-cis RA 50 nM; for day of peak of fraction of Zscan4+ cells / secondary increase of Zscan4+ cells: vitamin A 5 μM; for fraction of Zscan4+ cells: vitamin A 5 μM final concentration, up to 7 days; for secondary increase of Zscan4+ cells: within 7 days of treatment. It counts as cell-based, mouse.
Description: FIG. 9 is a line graph showing the percentage of Emerald cells following treatment of MC1-ZE7 cells in the presence or absence of leukemia inhibitory factor (LIF) and in the presence or absence of retinoic acid (RA). Cells were passaged to gelatin-coated plates in the presence of LIF (LIF+) and absence of atRA (atRA−). The next day (Day 0), the culture medium of each well was changed to four different conditions: LIF+ atRA−, LIF+ atRA+, LIF− atRA−, and LIF− atRA+. The cells were maintained in the same culture medium for 8 days with the medium changes every day, but without passaging. Cells were harvested every day and the number of Emerald GFP^+ cells was measured by flow cytometry.
as §1
A 20 mM stock solution of all-trans retinoic acid (atRA) in ethanol was used at a final concentration of 1 μM, 2 μM, or 50 nM. 9-cis RA and 13-cis RA were used at a final concentration of […] final. Vitamin A (retinol) was used at a final concentration of 5 μM.
Zscan4 Expression is Induced Transiently by all-Trans Retinoic Acid (atRA) Mouse ES cells (referred to as pZscan4-Emerald7 (MC1-ZE7) cells) in which a plasmid carrying a green fluorescent protein (Emerald: Em) regulated under the promoter of Zscan4c is integrated in the genome were used in these studies. […] Cells were first passaged to gelatin-coated plates in the presence of leukemia inhibitory factor (LIF+) and absence of atRA (atRA−). The next day (Day 0), the culture medium of each well was changed to four different conditions: LIF+ atRA−, LIF+ atRA+, LIF− atRA−, and LIF− atRA+. The final concentration of atRA was […]. The cells were maintained in the same culture medium for 8 days with medium changes every day, but without passaging. Cells were harvested every day and the number of Emerald GFP^+ cells was measured by flow cytometry (Guava).
as §2
A general note: In flow cytometry, cells or beads pass a laser one at a time.

Test [3] has as its system Zscan4. The settings on record: MC1-ZE7 cells, LIF+; H2O2 100 μM, 300 μM or 1000 μM; two days.
Description: MC1-ZE7 cells were cultured in standard ES cell medium (LIF+). […] The cells were cultured for two days and the fraction of Emerald^+ (i.e., Zscan4^+ cells) was measured by flow cytometry.
MC1-ZE7 cells were cultured in standard ES cell medium (LIF+). […] The cells were cultured for two days and the percentage of Em^+ (i.e., Zscan4^+ cells) was determined by the Guava flow cytometry (Guava).
Test [4] relates to ES cells. Nature of the test: Survival of ES cells after treatment with DNA-damaging agent (live cell count). Type of test: cell-based, mouse. The settings on record: then 3 more days. The procedure: FIGS. 12A and 12B are graphs showing survival of control ES cells (A) and tet-Zscan4 ES cells (B) after treatment with mitomycin C (MMC). Control ES cells contained a control plasmid (tet-Empty). Cells were cultured in standard ES medium (LIF+) and passaged into two groups: (1) in the absence of doxycycline (Dox) or (2) in the presence of Dox at a final concentration of 0.2 μg/ml. The Dox+ and Dox− media were changed every day. On the fourth day, the cells were cultured for 6 hours in the presence of MMC at a final concentration ranging from 0 to 600 ng/ml. MMC was removed from the culture by changing the media and cells were then incubated for 3 more days in the Dox+ medium, with the medium changed every day. Cells were harvested and the number of live cells was counted.
Control cells (carrying the tet-Empty plasmid) and Zscan4-expressing cells (carrying the tet-Zscan4 plasmid) were used in this study. The cells were cultured in standard ES medium (LIF+). Cells were passaged into two groups: (1) in the absence of doxycycline (Dox−), or (2) in the presence of doxycycline (Dox+) at a final concentration of 0.2 μg/ml. The Dox+ and Dox− media were changed every day. On the fourth day, the cells were cultured for 6 hours in the presence of MMC at a final concentration ranging from 0 to 600 ng/ml. […] Cells were harvested and the number of live cells was counted.

The mark [5] stands for this setting: MC1-ZE7 cells, atRA 2 M (so in the source), LIF+ and LIF-.

Take `CC1=C(/C=C/C(C)=C\C=C\C(C)=C\C(=O)O)C(C)(C)CCC1` [9-cis RA, 9-cis retinoic acid]: the “effect on cell proliferation” value in test [1] is listed as “nearly complete suppression of cell proliferation”. In test [2] (MC1-ZE7 cells), the “day of peak of fraction of Zscan4+ cells” value came to 2 days and the “fraction of Zscan4+ cells” value is listed as “transiently increased”. Also, the “secondary increase of Zscan4+ cells” value in test [2] is “not”.

Consider `CC1=C(/C=C/C(C)=C/C=C/C(C)=C\C(=O)O)C(C)(C)CCC1` [13-cis RA, 13-cis-retinoic acid], for which the “effect on cell proliferation” value in test [1] is “moderate suppression of cell proliferation”. Further, in test [2] (MC1-ZE7 cells), the “day of peak of fraction of Zscan4+ cells” value came out at 2 days and the “fraction of Zscan4+ cells” value was “transiently increased”. Also, in test [2], the “secondary increase of Zscan4+ cells” value is “observed”.

As to `OO` [H2O2, Hydrogen peroxide], in test [3], the “number (percentage) of Zscan4+ (Em+) cells” value is given as “increases the number of Zscan4^+ cells”.

For the compound `CO[C@@]12[C@H](COC(N)=O)C3=C(C(=O)C(C)=C(N)C3=O)N1C[C@@H]1N[C@@H]12` [MMC, mitomycin C], in test [4] (Zscan4 induced by Dox removal, agent for 6 hours), the “survival of Zscan4-expressing (tet-Zscan4) ES cells against the DNA-damaging agent, Dox- versus Dox+” value was “increased survival”. The cell survival rate entry in test [4] (control (tet-Empty) ES cells, MMC 0 to 600 ng/ml for 6 hours) was “the higher the dose of MMC, the lower the cell survival rate”.

Regarding `CC1=C(/C=C/C(C)=C/C=C/C(C)=C/C(=O)O)C(C)(C)CCC1` [atRA, all-trans retinoic acid], the “effect on cell proliferation” value in test [1] is given as “nearly complete suppression of cell proliferation”. Further, in test [2] (setting [5]), the “decline of Zscan4+ cell induction to basal level” value was “declined to the basal level by the fourth day” and the “time of peak of Em+ (Zscan4+) cell fraction” value is on record as “peaked on the second day”. In test [2] (MC1-ZE7 cells, atRA 2 M (so in the source), LIF+ and LIF- conditions, 8 days, daily harvest), the “fraction of Em+ cells (i.e., Zscan4+ cells) in the culture” value is listed as “dramatically induced”. Further, in test [2] (MC1-ZE7 cells), the “day of peak of fraction of Zscan4+ cells” value turned out to be 2 days and the “fraction of Zscan4+ cells” value is recorded as “transiently increased”. For the same compound, in test [2], the “secondary increase of Zscan4+ cells” value was “not”.

Turning to `CC1=C(/C=C/C(C)=C/C=C/C(C)=C/CO)C(C)(C)CCC1` [vitamin A, retinol], in test [1], the “effect on cell proliferation” value is reported as “did not affect cell proliferation”. Besides, in test [2] (MC1-ZE7 cells), the “day of peak of fraction of Zscan4+ cells” value turned out to be 2 days and the “fraction of Zscan4+ cells” value is given as “transiently increased”. Further, the “secondary increase of Zscan4+ cells” value in test [2] was “observed”.
